Test results reported in PubChem BioAssay (NCI).
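Where inhibition never reached the appropriate level, the endpoint shown equals the highest concentration tested. Otherwise, values were interpolated linearly from a five-concentration, 48-hour dose response in 96-well plates. The concentration for 50% growth inhibition is given as GI50. TGI is the concentration that stops growth completely.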

Legend:
Assay in all cases: growth of human tumour cells (NCI), 48 h
CAKI-1 renal = test system: CAKI-1 renal
HCC-2998 colon = test system: HCC-2998 colon
HL-60(TB) leukemia = test system: HL-60(TB) leukemia
HOP-92 NSCLC = test system: HOP-92 NSCLC
HS 578T breast = test system: HS 578T breast
OVCAR-3 ovarian = test system: OVCAR-3 ovarian
OVCAR-8 ovarian = test system: OVCAR-8 ovarian
PC-3 prostate = test system: PC-3 prostate
SF-539 CNS = test system: SF-539 CNS
SK-MEL-28 melanoma = test system: SK-MEL-28 melanoma

## CCOCCOC[C@H]1CCCN(c2ccnc3sc(C(N)=O)c(N)c23)C1
CAKI-1 renal
  GI50: 30.5 µM
  TGI: > 100 µM
HCC-2998 colon
  GI50: > 100 µM
  TGI: > 100 µM
HL-60(TB) leukemia
  GI50: 48.7 µM
  TGI: > 100 µM
HOP-92 NSCLC
  GI50: 44.3 µM
  TGI: > 100 µM
HS 578T breast
  GI50: 44.1 µM
  TGI: > 100 µM
OVCAR-3 ovarian
  GI50: 23.6 µM
  TGI: > 100 µM
OVCAR-8 ovarian
  GI50: 25.1 µM
  TGI: > 100 µM
PC-3 prostate
  GI50: 21.7 µM
  TGI: > 100 µM
SF-539 CNS
  GI50: > 100 µM
  TGI: > 100 µM
SK-MEL-28 melanoma
  GI50: 23.5 µM
  TGI: > 100 µM

## C=C(CN(C)C)C(=O)c1ccc(Oc2ccccc2)cc1
CAKI-1 renal
  TGI: 6.69 µM
HCC-2998 colon
  TGI: 32.3 µM
HL-60(TB) leukemia
  TGI: 3.46 µM
HOP-92 NSCLC
  TGI: > 25.5 µM
HS 578T breast
  TGI: 21.7 µM
OVCAR-3 ovarian
  TGI: 13.2 µM
OVCAR-8 ovarian
  TGI: 25.3 µM
PC-3 prostate
  TGI: 11.6 µM
SF-539 CNS
  TGI: 12.2 µM
SK-MEL-28 melanoma
  TGI: 17.4 µM

## C[C@@H]1OCC2(CCN(c3cnc(Sc4ccnc(N)c4Cl)c(N)n3)CC2)[C@@H]1N
CAKI-1 renal
  GI50: 3.69 µM
  TGI: > 100 µM
HCC-2998 colon
  GI50: > 100 µM
  TGI: > 100 µM
HL-60(TB) leukemia
  GI50: > 100 µM
  TGI: > 100 µM
HOP-92 NSCLC
  GI50: 0.0469 µM
  TGI: 0.788 µM
HS 578T breast
  GI50: 61.8 µM
  TGI: > 100 µM
OVCAR-3 ovarian
  GI50: > 100 µM
  TGI: > 100 µM
OVCAR-8 ovarian
  GI50: > 89.5 µM
  TGI: > 100 µM
PC-3 prostate
  GI50: > 100 µM
  TGI: > 100 µM
SF-539 CNS
  GI50: 24.2 µM
  TGI: > 100 µM
SK-MEL-28 melanoma
  GI50: > 100 µM
  TGI: > 100 µM

## Nc1nc(-c2ccc(Cl)cc2)cc(-c2ccccc2)c1-c1nc2ccccc2o1
CAKI-1 renal
  GI50: 12.2 µM
  TGI: 28.6 µM
HCC-2998 colon
  GI50: 8.39 µM
  TGI: 34 µM
HL-60(TB) leukemia
  GI50: 3.47 µM
  TGI: 9.23 µM
HOP-92 NSCLC
  GI50: 2.19 µM
  TGI: 6.18 µM
HS 578T breast
  GI50: 12.7 µM
  TGI: 40.9 µM
OVCAR-3 ovarian
  GI50: 7.29 µM
  TGI: 27.3 µM
OVCAR-8 ovarian
  GI50: 14.1 µM
  TGI: 54.1 µM
PC-3 prostate
  GI50: 4.62 µM
  TGI: 16.8 µM
SF-539 CNS
  GI50: 16.1 µM
  TGI: 32.2 µM
SK-MEL-28 melanoma
  GI50: 15.2 µM
  TGI: 34 µM

## COc1cc2c3c(n(CCCN4CCCC(O)C4)c(=O)c2cc1OC)-c1cc2c(cc1C3=O)OCO2 (centres undefined)
CAKI-1 renal
  GI50: 0.00685 µM
  TGI: 1.36 µM
HCC-2998 colon
  GI50: 0.0763 µM
  TGI: 1.05 µM
HL-60(TB) leukemia
  GI50: 0.597 µM
  TGI: 1.32 µM
HOP-92 NSCLC
  GI50: 0.0312 µM
  TGI: 0.901 µM
HS 578T breast
  GI50: 0.874 µM
  TGI: 2.11 µM
OVCAR-3 ovarian
  GI50: 2.14 µM
  TGI: 4.71 µM
OVCAR-8 ovarian
  GI50: 0.587 µM
  TGI: 1.45 µM
PC-3 prostate
  GI50: 0.0879 µM
  TGI: 1.15 µM
SF-539 CNS
  GI50: < 0.005 µM
  TGI: 0.0384 µM
SK-MEL-28 melanoma
  GI50: 0.885 µM
  TGI: 2.28 µM

## C=C1C(=O)O[C@H]2[C@H]1CC/C(COC(=O)NCc1cc(OC)cc(OC)c1)=C\CC[C@@]1(C)O[C@@H]21
CAKI-1 renal
  GI50: 1.59 µM
  TGI: 3.1 µM
HCC-2998 colon
  GI50: 1.94 µM
  TGI: 3.51 µM
HL-60(TB) leukemia
  GI50: 1.69 µM
  TGI: 5.03 µM
HOP-92 NSCLC
  GI50: 1.42 µM
  TGI: 3.18 µM
HS 578T breast
  GI50: 4.12 µM
  TGI: 23 µM
OVCAR-3 ovarian
  GI50: 1.01 µM
  TGI: 2.31 µM
OVCAR-8 ovarian
  GI50: 1.6 µM
  TGI: 3.95 µM
PC-3 prostate
  GI50: 2.72 µM
  TGI: 8.67 µM
SF-539 CNS
  GI50: 1.54 µM
  TGI: 3.02 µM
SK-MEL-28 melanoma
  GI50: 1.47 µM
  TGI: 3.54 µM

## O=C(O)c1ccccc1Nc1ccc2nnc(-c3ccncc3)n2n1
CAKI-1 renal
  GI50: 3.22 µM
  TGI: 11.7 µM
HCC-2998 colon
  GI50: 23.5 µM
  TGI: 52 µM
HL-60(TB) leukemia
  GI50: 32.5 µM
  TGI: > 100 µM
HOP-92 NSCLC
  GI50: 16.9 µM
  TGI: 35.8 µM
HS 578T breast
  GI50: 18.3 µM
  TGI: 53.9 µM
OVCAR-3 ovarian
  GI50: 9.7 µM
  TGI: 24.8 µM
OVCAR-8 ovarian
  GI50: 8.1 µM
  TGI: 41.7 µM
PC-3 prostate
  GI50: 13.4 µM
  TGI: 31.9 µM
SF-539 CNS
  GI50: 14.6 µM
  TGI: 55.8 µM
SK-MEL-28 melanoma
  GI50: 12.7 µM
  TGI: 29.6 µM

## C=CCSSc1ncnc2c1ncn2C1OC(CO)C(O)C1O (centres undefined)
CAKI-1 renal
  GI50: 0.799 µM
  TGI: > 68.8 µM
HCC-2998 colon
  GI50: 3.06 µM
  TGI: 60 µM
HL-60(TB) leukemia
  GI50: 3.27 µM
  TGI: 19.9 µM
HOP-92 NSCLC
  GI50: 0.222 µM
  TGI: 4.98 µM
HS 578T breast
  GI50: 14.5 µM
  TGI: > 93.5 µM
OVCAR-3 ovarian
  GI50: 0.829 µM
  TGI: > 32.7 µM
OVCAR-8 ovarian
  GI50: 2.87 µM
  TGI: > 42.9 µM
PC-3 prostate
  GI50: 2.28 µM
  TGI: > 22.4 µM
SF-539 CNS
  GI50: 2.28 µM
  TGI: 21 µM
SK-MEL-28 melanoma
  GI50: 36.5 µM
  TGI: > 100 µM

## Cc1cc(N(CCOS(C)(=O)=O)CCOS(C)(=O)=O)ccc1C=Nc1ccc(-c2csc(-c3ccc(Br)cc3)n2)cc1
CAKI-1 renal
  TGI: 3.96 µM
HCC-2998 colon
  TGI: 31.8 µM
HL-60(TB) leukemia
  TGI: 55.9 µM
HOP-92 NSCLC
  TGI: 38.3 µM
HS 578T breast
  TGI: > 97.3 µM
OVCAR-3 ovarian
  TGI: 44.3 µM
OVCAR-8 ovarian
  TGI: 61.6 µM
PC-3 prostate
  TGI: 86.8 µM
SF-539 CNS
  TGI: 9.64 µM
SK-MEL-28 melanoma
  TGI: 99.6 µM

## O=S(=O)(Nc1ccccn1)c1ccc(N=Nc2ccc(O)c3ncccc23)cc1
CAKI-1 renal
  GI50: 0.441 µM
  TGI: 4.56 µM
HCC-2998 colon
  GI50: 3.73 µM
  TGI: 18.4 µM
HL-60(TB) leukemia
  GI50: 0.77 µM
  TGI: 2.61 µM
HOP-92 NSCLC
  GI50: 1.21 µM
  TGI: 5.34 µM
HS 578T breast
  GI50: 1.06 µM
  TGI: 8.86 µM
OVCAR-3 ovarian
  GI50: 1.13 µM
  TGI: 11.4 µM
OVCAR-8 ovarian
  GI50: 0.715 µM
PC-3 prostate
  GI50: 1.29 µM
  TGI: > 100 µM
SF-539 CNS
  GI50: 0.54 µM
  TGI: 4.18 µM
SK-MEL-28 melanoma
  GI50: 1.72 µM
  TGI: 26 µM

## COc1ccc2nc(-c3cc4c([nH]c5ccccc54)c(-c4ccc(F)c(F)c4)n3)[nH]c2c1
CAKI-1 renal
  GI50: 2.41 µM
  TGI: 8.97 µM
HCC-2998 colon
  GI50: 8.96 µM
  TGI: 25.3 µM
HL-60(TB) leukemia
  GI50: 2.78 µM
  TGI: 7.12 µM
HOP-92 NSCLC
  GI50: 5.96 µM
  TGI: 29.5 µM
HS 578T breast
  GI50: 8.68 µM
  TGI: 41.9 µM
OVCAR-3 ovarian
  GI50: 1.94 µM
  TGI: 4.12 µM
OVCAR-8 ovarian
  GI50: 3.08 µM
  TGI: 18.1 µM
PC-3 prostate
  GI50: 3.25 µM
  TGI: 22.5 µM
SF-539 CNS
  GI50: 15.5 µM
  TGI: 34.6 µM
SK-MEL-28 melanoma
  GI50: 12.7 µM
  TGI: 27 µM

## Nc1c2ccccc2nc2ccccc12 (tested in a mixture with another compound)
CAKI-1 renal
  GI50: 1.83 µM
  TGI: 5.11 µM
HCC-2998 colon
  GI50: 1.85 µM
  TGI: 4.6 µM
HL-60(TB) leukemia
  GI50: 3.24 µM
  TGI: 8.04 µM
HOP-92 NSCLC
  GI50: 1.84 µM
  TGI: 6.98 µM
HS 578T breast
  GI50: 3.06 µM
  TGI: 17.4 µM
OVCAR-3 ovarian
  GI50: 2.29 µM
  TGI: 6.15 µM
OVCAR-8 ovarian
  GI50: 0.891 µM
  TGI: 6.44 µM
PC-3 prostate
  GI50: 2.44 µM
  TGI: 11.1 µM
SF-539 CNS
  GI50: 2.44 µM
  TGI: 8.26 µM
SK-MEL-28 melanoma
  GI50: 1.99 µM
  TGI: 3.86 µM
